# In patent publication US8168232B2, “Formulations and methods of using nitric oxide mimetics in cancer treatment” (priority 2000, dated 2012):
# What was measured:
# [1] = tested on: MDA-MB-231 breast cancer cells; assay: Colony formation assay for doxorubicin resistance, MDA-MB-231 monolayer; assay type: cell-based, human; settings: 200 μM doxorubicin
# Procedure: The resistance of MDA-MB-231 breast cancer cells to doxorubicin was determined following culture in 20% or 1% oxygen by counting the number of colonies formed. MDA-MB-231 cells were incubated in 1% O2 or 20% O2 for 24 hours. […] The cells were washed and then plated onto 35 mm plates at different dilutions. The cells were incubated for an additional 1-2 weeks in order to allow cell colonies to grow. At the end of the incubation period, the cells were fixed with Carnoy's fixative, stained with Crystal violet, rinsed and allowed to air dry. Colonies were counted visually. The surviving cells under each condition was determined by counting the number of colonies and was expressed as a fraction of the number of colonies that survived without doxorubicin exposure.
# Using human MDA-MB-231 breast carcinoma cells in clonogenic assays, survival was determined following doxorubicin exposure and NO mimetic administration to both monolayer and spheroid cultures. […] However, these NO mimetics effectively attenuated the resistance to 200 μM doxorubicin associated with 3D culture by 90% and 30% respectively.
# [2] = tested on: human PC-3 prostatic adenocarcinoma cells; settings: 0.5% vs 20% O2; one-hour doxorubicin
# Procedure: (§1) Low tumor oxygenation (hypoxia) correlates with increased metastasis and resistance to radiotherapy and chemotherapy. […] This was followed by a one-hour incubation with doxorubicin and survival was assessed by colony formation assays. Western blot analysis was used to measure NO synthase (NOS) protein levels in cells cultured in 20% and 0.5% O2.
# [3] = tested on: mouse TRAMP-C2 prostatic adenocarcinoma cells; settings: 0.5% vs 20% O2; one-hour doxorubicin
# Procedure: as §1
# [4] = tested on: MDA-MB-231 breast carcinoma spheroids; assay: Clonogenic survival of MDA-MB-231 spheroids after doxorubicin; assay type: cell-based, human; settings: 200 μM doxorubicin
# Procedure: Following initial cell plating, spheroids formed for 24, 48, 72, 96 or 120 h. At each time point, spheroids were exposed to 200 μM of doxorubicin, then disaggregated and plated for assessment of colony formation (survival).
# Spheroids were allowed to form for 72 h. DETA/NO was applied for the final 24 h of spheroid formation. Spheroids were then exposed to doxorubicin for 1 h, prior to disaggregation and plating for assessment of survival by clonogenic assay.
# Using human MDA-MB-231 breast carcinoma cells in clonogenic assays, survival was determined following doxorubicin exposure and NO mimetic administration to both monolayer and spheroid cultures.
structure (smiles),measurement,setting,value
COc1cccc2c1C(=O)c1c(O)c3c(c(O)c1C2=O)C[C@@](O)(C(=O)CO)C[C@@H]3O[C@H]1C[C@H](N)[C@H](O)[C@H](C)O1 [doxorubicin],survival in monolayer culture,[1],zero
same,increased survival following doxorubicin after pre-incubation under hypoxia,[2],up to 8 fold
same,increased survival following doxorubicin after pre-incubation under hypoxia,[3],up to 12 fold
same,decrease in survival of tumor cells cultured as spheroids,[4],90%
